{"source": "patent US10821152B2", "about": "“Methods, agents and compositions for treatment of inflammatory conditions” (Betanien Hospital, priority 2014, dated 2020)", "format_in_all_cases": "in vivo, human", "key": {"[1]": {"system": "patient with lithium induced psoriasis", "test": "Treatment of psoriasis (PASI, serum uric acid, testosterone)", "protocol": "The PASI score is a standardized score for assessing disease activity in psoriasis.\nHe therefore received testosterone supplementation in the form of Testogel containing 50 mg of testosterone, first daily; thereafter every 3 days to maintain testosterone levels within the normal range.\nThere are very few trials of lithium induced psoriasis. One trial examined 15 patients with psoriasis who were taking lithium."}, "[2]": {"system": "patient with seropositive rheumatoid arthritis", "test": "Degarelix with and without Methotrexate in rheumatoid arthritis", "conditions": "RA patient", "protocol": "• person with seropositive rheumatoid arthritis with disease duration of 16 years • Fulfilled ACR 2010 classification criteria for rheumatoid arthritis Experimental Treatment and Assessment of Response • Previously failed 3 biologics (Etanercept, Actemra, and Rituximab). Last tried Rituximab November 2013, but increasing disease activity and blood tests (CRP and ESR) during the months thereafter until start of Degarelix 16 Jun. 2014. Concomitantly used stable Methotrexate 10 mg weekly since 1999. • Started Degarelix 240 mg inductions dose 16 Jun. 2014, with 80 mg every 2 weeks thereafter. • Disease activity reduced and they achieved an ACR60 response by 29 Sep. 2014 under the introduction of Degarelix and stable concomitant Methotrexate and Prednisolone. • 3 Oct. 2014 the patient's pulmonary physician stopped Methotrexate treatment due to pleural thickening, and CT imaging supporting lung fibrosis which was suspected to be due to Methotrexate. The patient had dyspnea which resolved once Methotrexate was stopped. • By 21 Nov. 2014, the patients disease activity score had increased from 5.1 (29 Sep. 14) to 5.7 (21 Nov. 2014), due to the discontinuation of Methotrexate."}, "[3]": {"system": "patient with colitis", "test": "Treatment of inflammatory bowel disease (fecal calprotectin, partial Mayo score)", "protocol": "• person, diagnosed with colitis • Inflammatory bowel disease, colitis verified on colonic biopsy sample. Patients with inflammatory colitis usually have a higher incidence of autoimmune diseases. This patient also had ankylosing spondylitis. Experimental Treatment • September 2014 received first dose of Degarelix 240 mg sc. • Received Degarelix 80 mg sc approximately every two weeks thereafter. Assessment of Response • The inflammatory bowel diseases (IBD's), Crohn's disease and ulcerative colitis, are chronic relapsing, remitting disorders. The assessment of disease activity presents challenges to clinicians. Fecal biomarkers, such as fecal calprotectin, are a non-invasive method which can be used to aid managing clinicians. Calprotectin is released extracellularly in times of cell stress or damage and can be detected within feces and thus be used as a sensitive marker of intestinal inflammation. […] Fecal calprotectin levels are elevated in patients with both Crohn's disease and ulcerative colitis 1-2. There have been several studies looking at the use of fecal calprotectin to predict or monitor response to treatment. • In a study looking at 11 patients with relapsing IBD, fecal calprotectin was analysed at inclusion and after 8 weeks of treatment. Treatment was individualized medical therapy. A normalized fecal calprotectin concentration at 8 weeks predicted a complete response in 100% of patients,3 corresponding to endoscopic mucosal healing4. It has been shown that in patients with steroid induced clinical remission fecal calprotectin levels can remain elevated5-6. […] A level of <50 mg/kg is considered normal or remission for IBD. • There is no gold standard index in the measurement of colitis disease activity in clinical trials. Due to the invasive nature of endoscopies, the Mayo non-invasive colitis assessment of response score can be used to assess treatment effect of IBD in clinical trials9-11. […] Both the partial Mayo and total Mayo score are used to assess disease activity in clinical trials13. The partial Mayo score also had good discriminatory value between subjects in remission and those with active disease14. A clinical response has been defined as a 3 point or greater change in the partial Mayo score15."}, "[4]": {"test": "Peripheral GnRH levels by ELISA in patients with autoimmune diseases", "conditions": "RA Pt A", "from_the_text": "(§1) We analysed peripheral GnRH levels in patients with various autoimmune diseases using ELISA. […] Due to the nature of ELISA assays, the concentration in pg/mL should not necessarily be regarded as absolute, and may be interpreted as relative."}, "[5]": {"system": "peripheral GnRH", "test": "Peripheral GnRH levels by ELISA in patients with autoimmune diseases", "from_the_text": "as §1"}, "[6]": {"system": "patients with rheumatoid arthritis", "test": "Long term Degarelix treatment of rheumatoid arthritis patients: clinical variables", "parameters": "LH: unit not given beside the values", "from_the_text": "[table] [table] […] Two examples of patients with continued RA improvement over several weeks despite stably low levels of LH"}}, "note": "Several values for one entry are separate records, joined by “and”; a condition that tells them apart may be missing. Equal values may be shown once. Non-standard residues stand in square brackets, D forms with d. Residues, ends and D or L forms follow the SMILES beside them. *: point of attachment. dPhe(4-NHCONH2) = NC(=O)Nc1ccc(C[C@@H](N)C(=O)O)cc1; Dihydroorotyl(S) = O=C1C[C@@H](C(=O)*)NC(=O)N1; dPhe(4-Cl) = N[C@H](Cc1ccc(Cl)cc1)C(=O)O; Phe(4-NH2) = Nc1ccc(C[C@H](N)C(=O)O)cc1; d2Nal = N[C@H](Cc1ccc2ccccc2c1)C(=O)O; Lys(iPr) = CC(C)NCCCC[C@H](N)C(=O)O; d3Pal = N[C@H](Cc1cccnc1)C(=O)O"}
{"smiles": "CC(=O)N[C@H](Cc1ccc2ccccc2c1)C(=O)N[C@H](Cc1ccc(Cl)cc1)C(=O)N[C@H](Cc1cccnc1)C(=O)N[C@@H](CO)C(=O)N[C@@H](Cc1ccc(NC(=O)[C@@H]2CC(=O)NC(=O)N2)cc1)C(=O)N[C@H](Cc1ccc(NC(N)=O)cc1)C(=O)N[C@@H](CC(C)C)C(=O)N[C@@H](CCCCNC(C)C)C(=O)N1CCC[C@H]1C(=O)N[C@H](C)C(N)=O", "note": "[Degarelix] (Ac-[d2Nal][dPhe(4-Cl)][d3Pal]S[Phe(4-NH2)](Dihydroorotyl(S))[dPhe(4-NHCONH2)]L[Lys(iPr)]P[dA]-NH2)", "values": [{"measurement": "testosterone levels (normal 8-35 nmol/L)", "setting": "[1]; after the first week", "value": "< 1", "unit": "nmol/L"}, {"measurement": "improvement in psoriasis", "setting": "[1]; at 6 months", "value": "stable"}, {"measurement": "Psoriasis Area Severity Index (PASI) score", "setting": "[1]; baseline", "value": 53.6}, {"measurement": "serum uric acid (230-480 umol/L)", "setting": "[1]; baseline", "value": 485, "unit": "µmol/L"}, {"measurement": "testosterone levels (normal 8-35 nmol/L)", "setting": "[1]; before therapy", "value": 12, "unit": "nmol/L"}, {"measurement": "PASI reduction", "setting": "[1]; by 8 weeks", "value": 23, "unit": "%"}, {"measurement": "serum uric acid (230-480 umol/L)", "setting": "[1]; by 8 weeks", "value": 432, "unit": "µmol/L"}, {"measurement": "testosterone levels (normal 8-35 nmol/L)", "setting": "[1]; week 8, under testosterone substitution (Testogel)", "value": 9, "unit": "nmol/L"}, {"measurement": "disease activity score", "setting": "[2]; 21 Nov. 2014, Degarelix after Methotrexate stopped 3 Oct. 2014", "value": 5.7}, {"measurement": "disease activity score", "setting": "[2]; 29 Sep. 14, Degarelix with Methotrexate", "value": 5.1}, {"measurement": "ACR response", "setting": "[2]; by 29 Sep. 2014, with stable concomitant Methotrexate and Prednisolone", "value": "ACR60"}, {"measurement": "Fecal calprotectin (<50 normal)", "setting": "[3]; 02.10.14", "value": "48, normal mg/kg"}, {"measurement": "Fecal calprotectin (<50 normal)", "setting": "[3]; 10.01.15", "value": "32, normal mg/kg"}, {"measurement": "Fecal calprotectin (<50 normal)", "setting": "[3]; 24.09.14 (started 10 Sep. 2014)", "value": "79, high mg/kg"}, {"measurement": "partial Mayo score", "setting": "[3]; at 12 weeks", "value": 0}, {"measurement": "partial Mayo score", "setting": "[3]; baseline", "value": 3}, {"measurement": "CRP", "setting": "[4]; after 3 months", "value": 54, "unit": "mg/L"}, {"measurement": "DAS score", "setting": "[4]; after 3 months", "value": 4.2}, {"measurement": "CRP", "setting": "[4]; baseline", "value": 142, "unit": "mg/L"}, {"measurement": "DAS score", "setting": "[4]; baseline", "value": 8.6}, {"measurement": "peripheral GnRH", "setting": "[5]; Multiple Sclerosis Patient B, after 1 month", "value": 210, "unit": "pg/mL"}, {"measurement": "peripheral GnRH", "setting": "[5]; Multiple Sclerosis Patient B, baseline", "value": 318, "unit": "pg/mL"}, {"measurement": "peripheral GnRH", "setting": "[5]; Psoriasis Patient C, after 3 months", "value": 274, "unit": "pg/mL"}, {"measurement": "peripheral GnRH", "setting": "[5]; Psoriasis Patient C, baseline", "value": 300, "unit": "pg/mL"}, {"measurement": "peripheral GnRH", "setting": "[5]; RA Pt A, after 3 months, 240 mg loading, 80 mg every 2 weeks", "value": 359, "unit": "pg/mL"}, {"measurement": "peripheral GnRH", "setting": "[5]; RA Pt A, baseline", "value": 394, "unit": "pg/mL"}, {"measurement": "ACR % response", "setting": "[6]; RA Patient 3, 4 wks", "value": 30, "unit": "%"}, {"measurement": "ESR", "setting": "[6]; RA Patient 3, 4 wks", "value": 41}, {"measurement": "LH", "setting": "[6]; RA Patient 3, 4 wks", "value": "<0.3"}, {"measurement": "ACR % response", "setting": "[6]; RA Patient 3, 8 wks", "value": 40, "unit": "%"}, {"measurement": "ESR", "setting": "[6]; RA Patient 3, 8 wks", "value": 36}, {"measurement": "LH", "setting": "[6]; RA Patient 3, 8 wks", "value": "<0.3"}, {"measurement": "ACR % response", "setting": "[6]; RA Patient 3, 12 wks", "value": 50, "unit": "%"}, {"measurement": "ESR", "setting": "[6]; RA Patient 3, 12 wks", "value": 20}, {"measurement": "LH", "setting": "[6]; RA Patient 3, 12 wks", "value": "<0.3"}, {"measurement": "ESR", "setting": "[6]; RA Patient 3, baseline", "value": 46}, {"measurement": "LH", "setting": "[6]; RA Patient 3, baseline", "value": 2}, {"measurement": "ACR % response", "setting": "[6]; RA Patient 4, 3½ wks", "value": 20, "unit": "%"}, {"measurement": "ESR", "setting": "[6]; RA Patient 4, 3½ wks", "value": 68}, {"measurement": "LH", "setting": "[6]; RA Patient 4, 3½ wks", "value": "<0.3"}, {"measurement": "ACR % response", "setting": "[6]; RA Patient 4, 9 wks", "value": 50, "unit": "%"}, {"measurement": "ESR", "setting": "[6]; RA Patient 4, 9 wks", "value": 36}, {"measurement": "LH", "setting": "[6]; RA Patient 4, 9 wks", "value": "<0.3"}, {"measurement": "ESR", "setting": "[6]; RA Patient 4, baseline", "value": 78}, {"measurement": "LH", "setting": "[6]; RA Patient 4, baseline", "value": 8}, {"measurement": "power Doppler (inflammatory activity) on ultrasound, shoulder and right MCP 4", "setting": "[6]; RA Patient 5, after treatment (FIG. 2B, 2D, 2F)", "value": "no power Doppler"}, {"measurement": "effusion over the right wrist on ultrasound", "setting": "[6]; RA Patient 6, by 3.5 weeks (FIG. 4)", "value": "much smaller"}, {"measurement": "Physician assessment (0-100)", "setting": "[6]; baseline, c1-c6=RA Patients 1-6", "value": "85 and 90 and 80 and 70"}]}
